{"source": "patent US10016515B2", "about": "“DMA, a bis-benzimidazole, confers radioprotection to the intestine via Akt/NFκB dual pathway activation” (Jawaharlal Nehru University, priority 2016, dated 2018)", "key": {"HEK293 cells [1]": {"test_system": "HEK293 cells", "assay": "Actively proliferating cells by BrdU uptake", "type": "cell-based, human", "conditions": "48 h", "experimental": "FIG. 5. […] Tissue sections performed 3 days postirradiation (8Gy) with and without 50 mg/kg bw, i.v. DMA pretreatment with the control and DMA treated tissues (A) Images showing spleen, intestine and liver analysis at magnification 40× objective lens. (B) Small intestine, spleen and lung sections from melanoma tumor bearing mice at 40× & 60× objective lens (C) Immunohistochemical analysis of BrdU uptake in spleen and IL6 protein expression in intestine tissues at 100× objective lens magnification. (D) Graphical representation of actively proliferating HEK293 at 48 h and Balb/c intestinal cells by BrdU uptake under each condition (n=3/group from 2 independent experiments)."}, "A549 cells": {"test_system": "A549 cells", "assay": "Growth kinetics with DMA prior to 6 Gy radiation", "type": "cell-based, human", "conditions": "for % growth compared to control: A549, 50 μM DMA prior to 6 Gy; for % radioprotection: A549, 6 Gy", "experimental": "(§1) FIG. 2. Radioprotection by DMA Against Radiation in MRC5 and A549 Cell Lines. A) Proliferation of viable MRC5. B) Graphical representation of % survival of MRC5 cell line at 24 and 48 h C) A549 treated with 50 μM DMA in presence and absence of 6 Gy radiation and D) Graphical representation of % survival of A549 cell line at 24 and 48 h. Cell numbers were determined by haemocytometer at 0, 6, 12, 24 and 48 h. Values are mean (±SD) of three independent experiments. *p<0.05 compared to the control group.\n(§2) 2 h subsequent to DMA treatment, cells was exposed to γ-irradiation (1.3 Gy/min dose rate) using Co-60 source (Institute of Nuclear Medicine and Allied Sciences, Delhi, India). Following irradiation, cells were incubated for 4 h in a 5% CO2 humidified incubator and processed for further sample preparation."}, "MRC5 cells": {"test_system": "MRC5 cells", "assay": "Growth kinetics with DMA prior to 6 Gy radiation", "type": "cell-based, human", "conditions": "for % growth compared to control: MRC5, 50 μM DMA prior to 6 Gy; for % radioprotection: MRC5, 6 Gy", "experimental": "as §1, §2"}, "HEK293 cells [2]": {"test_system": "HEK293 cells", "assay": "Clonogenicity assay with Akt depleted cells", "type": "cell-based, human", "conditions": "5Gy", "experimental": "HEK 293 cells were transfected with Akt siRNA and control-siRNA (Santa Cruz Biotechnology Inc.) according to the manufacturer's instructions. Semi-quantitative RT-PCR was performed with primers specific for Akt and ACTB in control siRNA and Akt siRNA treated HEK cells for analysing knockdown of Akt […] gene expression.\nExponentially growing HEK cells post siRNA (siRNA-Akt and control siRNA transfections) were treated with 50 μM DMA for 1 h and irradiated with 0, 1, 2, 5 and 8 Gy of radiation dose at RT. Cells were seeded into 60 mm dishes in triplicate, at various densities and cells were stained with crystal violet to count colonies. Same experiment was done with control siRNA-transfected HEK cells. Percentage radioprotection was calculated by following formula % of Protection in radiation treated cells=(Survival fraction in siRNA+DMA treated cells/Survival fraction in only siRNA treated cells/)×100."}, "[3]": {"test_system": "Akt/NFκB pathway in Balb/c mice intestine tissue", "assay": "Immunoblot analysis and Akt kinase assay in intestine tissue", "type": "in vivo, mouse", "experimental": "HEK293, MRC5 and A549 cells were treated as indicated earlier. The cell pellet was resuspended in RIPA buffer and allowed to swell on ice for 30 min. Balb/c intestine tissue and tumor tissues were homogenized in RIPA buffer. Protein concentration was determined using Bradford's Assay (Bangalore Genei). Western blot was performed using standard protocols with primary antibodies against Akt, pAkt (Ser-473), […], mTOR, p70, Bad, PTEN, IKKα/β, p IKKα/β, p53, Bcl2, GAPDH, and NFκB (p65) (Cell Signalling) and horseradish peroxidase-conjugated mouse or rabbit secondary antibody (Abcam). Signals were detected using enhanced chemiluminescence (ECL system, Pierce) on X-ray film.\nAkt kinase activity was determined using Akt Kinase Assay Kit (Nonradioactive) (Cell Signaling Technology, Cat. #9840) following the manufacturer's instructions."}, "[4]": {"assay": "Plasma pharmacokinetics of DMA", "type": "in vivo, mouse", "experimental": "Oral and intravenous pharmacokinetics of DMA was performed at a dose of 100 and 50 mg/kg bw, respectively. Control mice were administered equal volume of sterile water. Blood samples were collected by cardiac puncture at 1, 2, 4, 6, 16, and 24 h after oral and intravenous administration of DMA. Plasma was spiked with Hoechst 33342 as internal standard. Plasma proteins were precipitated by adding 180 μl acetonitrile and the samples were centrifuged at 14000 rpm for 10 min at 4° C. Clear supernatant […] was taken and […] distilled water was added to get a ˜35% acetonitrile solution. The samples were injected onto HPLC-MS/MS system.\nA standard DMA calibration from 1-1000 ng/ml with internal standard (20 ng/ml) was quantified. Sample analysis was performed on positive ionization mode LC-MS/MS with multiple reactions monitoring (MRM, m/z Q1/Q3) of DMA (m/z 235.1/412.0, retention time (RT) 5.3 min) and internal standard (m/z 227.1/396.0, RT 6.5 min) (Agilent 6410 series). A gradient method was employed to analyze the plasma samples using mobile phase A (0.1% formic acid in water) and mobile phase B (methanol). The B % was set as 30 (0 min), 90 (10-14 min), 30 (14-24 min) with flow rate of 0.3 ml/min. An injection volume of 10 μl was used for analysis.\nPeak tissue concentration (Cmax) of DMA and time to reach the Cmax (tmax) were read directly from the raw data by visual examination of mean tissue concentration-time profile. The tissue concentration-time data following oral dose were subjected to one-, two- and three-compartmental models using WinNonlin program (version 6.3; Certara Inc, Missouri, USA) to calculate the pharmacokinetic parameters. The pharmacokinetic models were compared according to maximal correlation between observed and predicted concentration, minimal sum of squared residuals, Akaike Information Criterion (AIC) and Schwarz Bayesian Criterion (SBC). However, the tissue concentration-time data following intravenous administration were subjected to non-compartmental approach."}, "[5]": {"conditions": "Balb/c, mouse, plasma, 100 mg/kg oral"}}, "data": [{"compound": "COc1ccc(-c2nc3cc(-c4nc5cc(N6CCN(C)CC6)ccc5[nH]4)ccc3[nH]2)cc1OC", "note": "[DMA, 5-(4-methylpiperazin-1-yl)-2-[2′-(3,4-dimethoxyphenyl)-5′-benzimidazolyl]benzimidazole]", "values": [{"measurement": "Cells at active S phase", "setting": "HEK293 cells [1]; HEK293, DMA treated", "value": 30, "unit": "%"}, {"measurement": "S phase cells", "setting": "HEK293 cells [1]; HEK293, DMA+Radiation (5Gy)", "value": "came back to normal"}, {"measurement": "% growth compared to control", "setting": "A549 cells; 24 h", "value": 73, "unit": "%"}, {"measurement": "% growth compared to control", "setting": "A549 cells; 48 h", "value": 68, "unit": "%"}, {"measurement": "% radioprotection", "setting": "A549 cells; 24 h", "value": 11.1, "unit": "%"}, {"measurement": "% radioprotection", "setting": "A549 cells; 48 h", "value": 15, "unit": "%"}, {"measurement": "% growth compared to control", "setting": "MRC5 cells; 24 h", "value": 58.62, "unit": "%"}, {"measurement": "% growth compared to control", "setting": "MRC5 cells; 48 h", "value": 74, "unit": "%"}, {"measurement": "% radioprotection", "setting": "MRC5 cells; 24 h", "value": 20.69, "unit": "%"}, {"measurement": "% radioprotection", "setting": "MRC5 cells; 48 h", "value": 29, "unit": "%"}, {"measurement": "% radioprotection (clonogenicity)", "setting": "HEK293 cells [2]; Akt siRNA treated cells", "value": 7.5, "unit": "%"}, {"measurement": "% radioprotection (clonogenicity)", "setting": "HEK293 cells [2]; control siRNA treated cells", "value": 40.6, "unit": "%"}, {"measurement": "Phosphorylated Akt, GSK3β and IKKα/β", "setting": "[3]; DMA treated intestine tissue prior to irradiation", "value": "higher level"}, {"measurement": "Kinase activity of Akt", "setting": "[3]; DMA+Radiation vs control and radiation, intestine", "value": "higher kinase activity"}, {"measurement": "NFκB p65 expression", "setting": "[3]; DMA+Radiation, intestine", "value": "higher expression"}, {"measurement": "Maximum concentration observed in plasma", "setting": "[4]; 50 mg/kg i.v.", "value": 4291.95, "unit": "ng/mL"}, {"measurement": "Volume of distribution (Vss)", "setting": "[4]; 50 mg/kg i.v.", "value": "larger than the total blood volume of mouse"}, {"measurement": "Plasma peak concentration", "setting": "[4]; 100 mg/kg oral", "value": 445.8, "unit": "ng/mL"}, {"measurement": "Time to decline to basal level in plasma", "setting": "[4]; 100 mg/kg oral", "value": 16, "unit": "h"}, {"measurement": "half-life", "setting": "[4]; Balb/c, mouse, plasma, iv, 50 mg/kg i.v.", "value": 2.65, "unit": "h"}, {"measurement": "Tmax", "setting": "[4]; [5]", "value": 1.5, "unit": "h"}, {"measurement": "half-life", "setting": "[4]; [5]", "value": 3.5, "unit": "h"}, {"measurement": "AUC", "setting": "[4]; Balb/c, mouse, plasma, 100 mg/kg oral, read-out: Area under curve (AUC), plasma", "value": 669, "unit": "ng·h/mL"}, {"measurement": "clearance", "setting": "[4]; Balb/c, plasma, intravenous, 50 mg/kg, mouse, hepatic blood flow 5.4 L/h/kg, read-out: Systemic clearance (converted)", "value": 195, "unit": "mL/min/kg"}, {"measurement": "Clearance from plasma", "setting": "[4]; oral and i.v. routes", "value": "rapid clearance"}]}]}
